Results: PubChem BioAssay (NCI)
Values joined by “and” are separate entries in the source; they are usually repeats but may differ in a detail not shown here. Identical values can stand only once.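 Following 48 hours of exposure in 96-well plates, responses at five concentrations were used to interpolate endpoints linearly. At the GI50, growth is halved. TGI: concentration producing complete growth inhibition.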

Experiments:
Test in all cases: inhibition of tumour cell growth, NCI panel, 48 h
DU-145 prostate = tested on: DU-145 prostate
NCI/ADR-RES ovarian = tested on: NCI/ADR-RES ovarian
NCI-H226 lung = tested on: NCI-H226 lung
RXF 393 renal = tested on: RXF 393 renal
MDA-MB-231 breast = tested on: MDA-MB-231 breast
SR leukemia = tested on: SR leukemia
ACHN renal = tested on: ACHN renal
SF-539 CNS = tested on: SF-539 CNS
SNB-19 CNS = tested on: SNB-19 CNS
HS 578T breast = tested on: HS 578T breast

| Structure (SMILES) | GI50 (DU-145 prostate) [µM] | TGI (DU-145 prostate) [µM] | GI50 (NCI/ADR-RES ovarian) | TGI (NCI/ADR-RES ovarian) [µM] | GI50 (NCI-H226 lung) [µM] | TGI (NCI-H226 lung) [µM] | GI50 (RXF 393 renal) | TGI (RXF 393 renal) | GI50 (MDA-MB-231 breast) | TGI (MDA-MB-231 breast) | GI50 (SR leukemia) [µM] | TGI (SR leukemia) | GI50 (ACHN renal) | TGI (ACHN renal) | GI50 (SF-539 CNS) | TGI (SF-539 CNS) | GI50 (SNB-19 CNS) [µM] | TGI (SNB-19 CNS) [µM] | GI50 (HS 578T breast) | TGI (HS 578T breast) |
| --- | --- | --- | --- | --- | --- | --- | --- | --- | --- | --- | --- | --- | --- | --- | --- | --- | --- | --- | --- | --- |
| Cc1ccc(/C=C2\CCOC2=O)cc1 | > 100 | > 100 | > 100 µM | > 100 | > 100 | > 100 | > 100 µM | > 100 µM | > 100 µM | > 100 µM | > 100 | > 100 µM | > 100 µM | > 100 µM | > 100 µM | > 100 µM | > 100 | > 100 | – | – |
| Cc1ccccc1NC(=O)c1[nH]c(=S)nc(N)c1-c1ccccc1C | – | – | – | – | – | > 100 | – | > 100 µM | – | – | – | > 100 µM | – | > 100 µM | – | > 100 µM | – | > 100 | – | – |
| Cc1ccccc1NC(=O)NC(CC(N)=O)c1ccc2c(c1)nc(-c1cccc(Oc3ccc(C(C)(C)C)cc3)c1)n2CCCN1CCCCC1C (configuration not stated) | 5.4 | 13.6 | 28 µM | > 85.9 | 7.9 | 25.7 | 2.91 µM | 7.13 µM | 2.34 µM | 5.27 µM | – | – | 9.08 µM | 22.3 µM | 1.82 µM | 3.77 µM | 1.97 | 4.27 | 5.58 µM | 16.3 µM |
| Cc1cc(Cl)ccc1N1C(=O)C(=O)C(c2nc3ccccc3s2)C(=O)C1=O | – | – | – | – | – | > 100 | – | – | – | – | – | > 100 µM | – | > 100 µM | – | > 100 µM | – | > 100 | – | – |
| Cc1ccc(S(=O)(=O)N2CCCCC2CCO)cc1 (configuration not stated) | – | – | – | – | – | > 100 | – | > 100 µM | – | – | – | > 100 µM | – | > 100 µM | – | > 100 µM | – | > 100 | – | – |
| Cn1c(=O)c(F)c(Nc2ccc(I)cc2F)c2c(=O)n(C[C@@H](O)CO)cnc21 | – | > 100 | 12.7 µM and > 2.46 µM | > 100 | – | – | 0.16 µM and 0.162 µM | 4 µM and > 2.93 µM | 0.0442 µM and 0.0456 µM | 8.98 µM and > 1.99 µM | 5.04 | 36.4 µM and > 10 µM | 2.17 µM and 0.48 µM | 40.8 µM and > 6.49 µM | 3.21 µM and 0.907 µM | 22.8 µM and > 4.07 µM | 4.73 | > 100 | 5.17 µM and 1.21 µM | 54.6 µM and > 3.97 µM |
| CCN(CCCl)CCNc1c2ccccc2nc2ccc(OC)cc12 | – | – | – | 12.8 | – | 2.42 | – | 1.97 µM | – | – | – | – | – | 1.66 µM | – | 2.34 µM | – | 8.62 | – | – |
| O=C(OCCOCCOC(=O)c1c[nH]cc1-c1ccccc1)c1c[nH]cc1-c1ccccc1 | – | – | – | – | – | 48.9 | – | 35.6 µM | – | – | – | 55.6 µM | – | – | – | 32.5 µM | – | 69.9 | – | – |
| Cc1ccc(Cl)cc1Nc1nc(C(F)(F)F)ccc1C(=O)Oc1ccc(Cl)cc1 | 7.73 | 24.8 | 15.6 µM | 46.6 | 12.1 | 36.1 | 3.97 µM | 16 µM | 4.53 µM | 20.6 µM | – | – | 5.16 µM | 18 µM | 12 µM | 27.1 µM | 9.42 | > 100 | 3.13 µM | 14.8 µM |
| CC(=O)O[C@H]1CC[C@@]2(C)C(=CC[C@@H]3C2CC[C@]2(C)Nc4oncc4CC32)C1 (some centres not stated) | – | – | – | – | – | 49.5 | – | > 100 µM | – | – | – | – | – | 72.4 µM | – | > 100 µM | – | – | – | – |
| COc1cc(/C=C/C(=O)c2ccc(Nc3nc(Nc4ccc(F)cc4)nc(Nc4ccc(F)cc4)n3)cc2)cc(OC)c1OC | > 100 | > 100 | 4.69 µM | > 100 | 3.8 | 29.3 | 2.74 µM | 7.49 µM | 15.8 µM | > 100 µM | – | – | 21.2 µM | > 100 µM | 11.8 µM | > 100 µM | 76.6 | > 100 | 16.7 µM | > 100 µM |
| CC(=O)Nc1ccc(C(=O)N[C@@H]2C(=O)N3[C@@H]2SC(C)(C)[C@@H]3C(=O)O)cn1 | – | > 100 | – | > 100 | – | > 100 | – | > 100 µM | – | > 100 µM | – | – | – | > 100 µM | – | – | – | > 100 | – | > 100 µM |
| N#Cc1c2ccccc2c2nnc3cc(Cl)c(Cl)cc3n12 | 32.4 | > 100 | 31.6 µM | 97.8 | – | – | 30 µM | > 100 µM | 24.2 µM | 74.6 µM | – | – | 19.9 µM | 52.8 µM | 28.5 µM | 61.8 µM | – | – | – | – |
| N#C/C(=C/N1CCN(C(=O)c2ccco2)C1=S)C(N)=O | 29.8 | > 100 | 25.4 µM | 59.6 | – | – | 19.2 µM | 82.2 µM | 13.1 µM | 37 µM | 3.03 | > 100 µM | 11.8 µM | 38.8 µM | – | – | 36.4 | > 100 | – | – |
| NS(=O)(=O)c1ccc(-n2nc(-c3ccc(Cl)cc3)cc2C2=CC(=O)C=CC2=O)cc1 | 23.7 | 87.5 | 27.2 µM | 63.5 | 13.8 | 34.4 | 21.9 µM | 46.7 µM | 13.7 µM | 32 µM | 26.7 | > 100 µM | 20.8 µM | 35.1 µM | 21.5 µM | 45.4 µM | – | – | 23.8 µM | 72.6 µM |
| COC(=O)C1Cc2c([nH]c3ccccc23)C=N1 (configuration not stated) | – | – | – | – | – | > 100 | – | > 100 µM | – | – | – | > 100 µM | – | > 100 µM | – | > 100 µM | – | > 100 | – | – |
| CC1=C(C)C(=O)C(C(C)C2=C(C)C(=O)C(C)=C(C)C2=O)=C(C)C1=O | 35.5 | > 100 | 17.9 µM | 52 | 58.3 | > 100 | 31.7 µM | 82.7 µM | 13.8 µM | 30.4 µM | 7.35 | 31.7 µM | 24.5 µM | > 100 µM | 23.7 µM | > 100 µM | – | – | 29.2 µM | > 100 µM |
